# Measured values as given in PMC12563536, “A Novel Allosteric Inhibitor Targeting IMPDH at Y233 Overcomes Resistance to Tyrosine Kinase Inhibitors in Lymphoma” (Cancers, 2025).
# Columns and labels:
# Assay type in all cases: biochemical
# recombinant human IMPDH2 [1] = target: T1, recombinant human IMPDH2 (Homo sapiens, UniProt P12268); experiment: IMPDH activity assay kit, microplate, […] min preincubation; settings: dose-dependent, 50-200 µM tested
# T1 construct: commercial recombinant protein (R&D Systems); 514 residues full length; tetramer/octamer
# recombinant human IMPDH2 [2] = target: T1, recombinant human IMPDH2; experiment: IMPDH activity assay, 96-well screen; settings: read-out: % inhibition at 10 μM
# recombinant human IMPDH2 [3] = target: T1, recombinant human IMPDH2; experiment: IMPDH activity assay kit, microplate; settings: targeted to allosteric GTP-binding site of the CBS domain (site from docking)
# T1 sequence (P12268 2-514): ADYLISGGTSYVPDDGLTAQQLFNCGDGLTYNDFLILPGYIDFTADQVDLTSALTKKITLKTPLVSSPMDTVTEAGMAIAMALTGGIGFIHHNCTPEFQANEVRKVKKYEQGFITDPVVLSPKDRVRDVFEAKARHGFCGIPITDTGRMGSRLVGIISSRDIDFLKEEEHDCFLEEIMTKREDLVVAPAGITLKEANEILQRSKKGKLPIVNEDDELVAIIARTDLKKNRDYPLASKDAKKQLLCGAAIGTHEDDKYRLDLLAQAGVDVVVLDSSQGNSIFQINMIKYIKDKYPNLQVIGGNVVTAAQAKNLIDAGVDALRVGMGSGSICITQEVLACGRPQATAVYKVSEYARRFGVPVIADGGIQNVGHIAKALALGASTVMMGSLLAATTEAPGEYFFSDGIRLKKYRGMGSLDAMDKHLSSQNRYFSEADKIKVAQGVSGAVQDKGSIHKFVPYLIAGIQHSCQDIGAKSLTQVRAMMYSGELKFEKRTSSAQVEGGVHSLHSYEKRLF
SMILES,inhibition at 10 µM (recombinant human IMPDH2 [2]) [%],further results
CCCCCCCC(=O)OC[C@H](COP(=O)(O)O[C@@H]1[C@H](O)[C@H](OP(=O)(O)O)[C@@H](O)[C@H](O)[C@H]1O)OC(=O)CCCCCCC [PI(3)P diC8],–,% inhibition at 200 μM (recombinant human IMPDH2 [1]): > 50%
"CN(C)c1ccc(C=c2sc3nc(=O)c(-c4ccccc4NC(=O)C(F)(F)F)nn3c2=O)cc1 [compound 5, comp-5]",> 32,–
"O=C1C=CC(=O)c2c(O)c(N3CCN(CCOCCO)CC3)c(Br)c(O)c21 [compound 10, Comp-10]",–,IC50 (recombinant human IMPDH2 [3]): ~260 nM
"O=C1c2ccccc2C(=O)C1C(c1ccc([N+](=O)[O-])cc1)C1C(=O)c2ccccc2C1=O [compound 12, comp-12]",> 52,–
